In brackets after ≈: the same amount, converted by molar mass.
Key:
[1] = test system: A549 cancer cells; assay: Cytotoxic activity against A549 cancer cells (sulforhodamin B method); assay type: cell-based; conditions: Homo sapiens; A549 cells, SRB method, 48 hours; read-out: ED50, cytotoxic activity against A549
Protocol: The cytotoxic activity against A549 cancer cells was determined using a method for measuring sulforhodamin B (SRB), which was developed in the year 1989 by NIC for measuring anticancer activity of the drug in vitro. For the experiment, cells under subculturing were separated from the attached surface with trypsin-CDTA solution and then dispensed into a 24-well flat-bottom microplate (Falcon) so that the number of cells per well is 8×10^4 (A549). The microplate was incubated in a CO2 incubator for 24 hours to attach the dispensed cells to bottom. The medium was removed with aspirator. Then, 100 μl of the solution of the test compounds diluted in a log-dose of 6 kinds of concentration was added to each well containing cells, in a multiple of 3. The microplate was incubated for further 48 hours. In addition, the diluted solution of the test compounds above was filtered through a 0.22 μm filter, before addition to the cells, to keep the experiment under sterilized condition. The cells were incubated with the test compounds for 48 hours and then the medium was removed from each well. 100 μl of 10% trichloroacetic acid (TCA) was added to each well and then the plate was allowed to stand at 4° C. for one hour to fix the cells to the bottom of plate. After fixing the cells, the plate was washed 5 to 6 times with water to completely remove any remaining TCA solution and then dried at room temperature until water is no longer present. To the completely dried plate was added the dying solution of 0.4% SRB dissolved in 1% acetic acid in an amount of 250 μl per well to stain the cells for 30 minutes and then the plate was washed again 5 to 6 times with 1% acetic acid solution to remove the remaining SRB which is not bound to the cells. The stained cell plate was dried again at room temperature. Then, the dying solution was carefully dissolved in a certain amount of 10 mM Tris so that the O.D. value in the control group at 520 nm is 0.8-1.0 Å (optical density), and the optical density at 520nm was determined. The ED50 value was obtained from the determined optical density. To calculate the activity of the drug against cancer cells, the number of cells (Tz) at the beginning of the addition of drug, the number of cells (C) after incubation with the medium in the absence of drug for 48 hours and the number of cells (T) after incubation in the presence of drugs at each concentration for 48 hours were determined.
The anticancer activity of the test compounds was determined form the following equations. Specifically, in the […] the equation (T-Tz)/(C-Tz)×100 was used and in the case of Tz<T the equation (T-Tz)/Tz×100 was used. Then the IC50 value wich is the concentration of drug which inhibits the growth of cancer cells by 50% was calcualted from the above calculated values using a data regressive function of LOTUS programme and the cytotoxic activities of the test compounds were compared with each other.

[2] = test system: S-180 sarcoma cells; assay: Animal experiment using Sarcoma S-180 cells (survival of mouse); assay type: in vivo, male ICR mouse; conditions: ip, S-180 ICR mouse, intraperitoneal, 7 to 8 injections; for responders at 10 µmol/kg / response vs control in vivo at 10 µmol/kg: daily dose 10 μmole (mg/kg/day given per compound)
Protocol: In this experiment, healthy male ICR mouse weighing 20 to 25 g were used as test animal and were fed with water and feed without any restriction in the chamber controlled at the temperature of 23° to 24° C. As the feed, the antibiotic-free feed for mouse was used.
S-180 cells which were incubated for 7 days within abdominal cavity of ICR mouse were separated together with ascites. To the separated cells was added sterilized cold physiological saline and the mixture was centrifuged with 400×g for 2 minutes to separate the cell precipitate. The separated cell precipitate was suspended again in sterilized cold physiological saline and then centrifuged to remove the supernatant. Only S-180 cells were taken, excluding any red bllod cells incorporated therein, washed three times with the same method as above, and then suspended to obtain the cell suspension in concentration of 10^7 cells/ml by counting the number of cells with a haemacytometer. Each 0.1 ml of this cell suspension was transplanted in an abdominal cavity.
After 24 hours from the transplantation, mouse were divided so that each group contains 8 to 9 mouse. The test sample was dissolved in a predetermined amount of dimethylsulfoxide to prepare the stock solution which was stored at 4° C. 30 μl of the stock solution was taken and then mixed with 1.5 ml of physiological saline. 0.1 ml of this mixture was intraperitoneally injected to the test animal. To the control group, 2% dimethylsulfoxide-physiological saline solution was injected. Meanwhile, doxorubicin which is used as the comparative drug was dissolved in 2% dimethylsulfoxide-physiological saline solution and then injected in an amount of 0.5 mg(titer)/kg. The schedule for injection comprises a total of 7 to 8 injections in the manner that after the transplantation of cancer cells 0.1 ml of the test sample per a day is administered for 2 to 4 days followed by the rest for one day. The survival rate was calculated on the basis of the date on which all of one control group is died (approximately 18 to 20 days). The survival rate (T/C, %) was calculated by the following equation as proposed in NIC's protocol: [formula]

[3] = test system: K-562 cells; assay: Cytotoxic activity against K-562 cells; assay type: cell-based; conditions: Homo sapiens; K562 cells, 48 hours, 37° C.; read-out: ED50, cytotoxic activity against K562
Protocol: As in the test for the cytotoxic activity against L1210 cells, the test samples were dissoved in ethanol or dimethylsulfoxide in a certain concentration. 0.1 ml of the sample solution was mixed with 0.9 ml of a fresh medium to prepare the dilutions. To each two test tubes having a screw cap were added 100, 50, 25 μl, respectively, of the sample dilutions by means of a micropipet. To each test tube for the test group and the control group (2√n: n=number of the samples) was added 5 ml of the dilutions of HL-60 cells and K-562 cells which were cultured and activated before 24 hours from the beginning of experiment and then diluted in a concentration of 1×10^5 cells/mi. All test tubes were cultured for 48 hours in a CO2 incubator at 37° C. and then the number of cells was counted using a haemacytometer.
(§1) The ED50 value is defined as a concentration (μg/ml) of the sample which inhibits the growth of cancer cells by 50% of the control group and determined according to a method described in NIC's mannual (NIC=National Cancer Institue, U.S.A.). The growth rate Y(%) of cells in the presence of the test sample in each concentration was calculated according to the followign equation: […]
(§2) In the above equation, T means the average cell number per ml in the test group after incubation for 48 hours in the presence of the test samples in each concentration, C means the average cell number per ml in the control group after incubation for 48 hours, and Co means the average cell number per ml in the control group at the beginning of incubation. The Y(%) value at each concentration and log10 value of each concentration were obtained and the regression curve was constructed according to the following equation from those obtained values. In this case, when all the Y(%) value obtained at each concentration is greater than 55% or lower than 45%, the experiment was repeatedly conducted.
(§3) To construct the regression curve Y=A+BX the values A and B were obtained using the following equation. [formula]
(§4) In the above, the value N is the number of selected points which is greater than 2 and lower than, or identical with, the number of cencentration of the test sample, Xi is log(concentration) i, and Yi is the growth ratio at (concentration)i. The value of ED50 was obtained for those obtained slope and intercept.

[4] = test system: L1210 cells; assay: Cytotoxic activity against L1210 cells; assay type: cell-based; conditions: Mus musculus; L1210 cells, 48 hours, 37° C.; read-out: ED50, cytotoxic activity against L1210
Protocol: To obtain L1210 cells in a logarithmic phase for cytotoxic activity test, in a 250 ml Erlenmeyer flask with a screw cap including Fisher medium warmed to 36° to 37° C. L1210 cells were adjusted to a concentration of 2-3×10^5 cells/ml and then cultured, before 24 hours from the beginning of experiment. Then, the culture solution thus obtained was suspended to prepare a L1210 cell suspension having a concentration of about 0.8-1.0×10^6 cells/ml. Test sample was dissoved in ethanol or dimethylsulfoxide in a certain concentration just before the experiment. 0.1 ml of the sample solution was diluted 10 times with 0.9 ml of a fresh medium. To each screw-capped test tube were added 100, 50, 25 μl, respectively, of the sample dilutions and then added 5 ml of the cell suspension (5×10^4 cells/ml) prepared above to use as the test group. To the test tubes for the control group (2√n: n=number of the samples), only 5 ml of the cell suspension was added. All test tubes were cultured for 48 hours in a CO2 incubator at 37° C. and then the number of cells was counted using a haemacytometer.
as §1, §2, §3, §4

[5] = 1200 h, read-out: Number of mouse survived for 50 days (converted)

`CCCCCCCCCCCCC(OC(C)=O)C1=CC(=O)c2c(O)ccc(O)c2C1=O` (stereo not drawn) [2-(1-acetoxytridecyl)-5,8-dihydroxy-1,4-naphthoquinone] was tested, and the IC50 [1] was 15.8 µg/mL (≈ 36.7 µM), the responders at 10 µmol/kg [2, 5] was 14.3% and the response vs control in vivo at 10 µmol/kg ([2]; read-out: T/C) was 131%. The IC50 [3] was 4.2 µg/mL (≈ 9.76 µM) and the IC50 [4] was 0.4 µg/mL (≈ 0.929 µM).
`CC(=O)OC(CCC(C)C)C1=CC(=O)c2c(O)ccc(O)c2C1=O` (stereo not drawn) [2-(1-acetoxy-4-methylpentyl)-5,8-dihydroxy-1,4-naphthoquinone] was tested, and the IC50 [1] was 1.5 µg/mL (≈ 4.51 µM), the responders at 5 µmol/kg ([2]; 1200 h, daily dose 5 μmole (mg/kg/day given per compound), read-out: Number of mouse survived for 50 days (converted)) was 14.3% and the response vs control in vivo at 5 µmol/kg ([2]; daily dose 5 μmole (mg/kg/day given per compound), read-out: T/C) was 188%. The IC50 [3] was 0.07 µg/mL (≈ 0.211 µM) and the IC50 [4] was 0.05 µg/mL (≈ 0.15 µM).
`CC/C=C/CC(=O)OC(CCC(C)C)C1=CC(=O)c2c(O)ccc(O)c2C1=O` (stereo not drawn) [2-[1-(3-trans-hexenoyloxy)-4-methylpentyl]-5,8-dihydroxy-1,4-naphthoquinone] was tested, and the IC50 [1] was 2.4 µg/mL (≈ 6.21 µM), the responders at 10 µmol/kg [2, 5] was 0% and the response vs control in vivo at 10 µmol/kg ([2]; read-out: T/C) was 160%. The IC50 [3] was 0.2 µg/mL (≈ 0.518 µM) and the IC50 [4] was 0.05 µg/mL (≈ 0.129 µM).
`CCCCCCCOC(CCC(C)C)C1=CC(=O)c2c(OC)ccc(OC)c2C1=O` (stereo not drawn) [2-(1-heptyloxy-4-methylpentyl)-5,8-dimethoxy-1,4-naphthoquinone] was tested, and the IC50 [1] was 4.7 µg/mL (≈ 11.3 µM), the IC50 [3] was 6.4 µg/mL (≈ 15.4 µM) and the IC50 [4] was 3.1 µg/mL (≈ 7.44 µM).
For `CCCCCCCCCCCCC(OC(=O)CCCCC)C1=CC(=O)c2c(O)ccc(O)c2C1=O` (stereo not drawn) [2-(1-hexanoyloxytridecyl)-5,8-dihydroxy-1,4-naphthoquinone], the IC50 [1] was over 20 µg/mL, the IC50 [3] was over 20 µg/mL and the IC50 [4] was 1.5 µg/mL (≈ 3.08 µM).
In the case of `CCOC(CCC(C)C)C1=CC(=O)c2c(OC)ccc(OC)c2C1=O` (stereo not drawn) [2-(1-ethoxy-4-methylpentyl)-5,8-dimethoxy-1,4-naphthoquinone], the IC50 [1] is reported as 3 µg/mL (≈ 8.66 µM), the IC50 [3] is reported as 1.5 µg/mL (≈ 4.33 µM) and the IC50 [4] is reported as 0.01 µg/mL (≈ 0.0289 µM).
With `CCCCCC(O)C1=CC(=O)c2c(OC)ccc(OC)c2C1=O` (stereo not drawn) [2-(1-hydroxyhexyl)-5,8-dimethoxy-1,4-naphthoquinone] the IC50 [1] was 0.9 µg/mL (≈ 2.83 µM), the IC50 [3] was 0.6 µg/mL (≈ 1.88 µM) and the IC50 [4] was 0.3 µg/mL (≈ 0.942 µM).
